Like-named read-outs stand apart in the source and are kept apart here.
How the values were obtained:
[1] = Description: The ratio between MCH and the tested excipient is detailed below. Visual inspection was the major criterion for indication of compatibility. The color of intact MCH suspension is pale yellow; and any change of color (e.g., to dark orange, red, green, brown and black) indicates oxidation or degradation.
Other than hydrogenated castor oil, beeswax, paraffin and hard fat, the aforesaid items listed are oily emollients.
Additives were tested for compatibility with MCH. […] In parallel, antioxidants were added to the MCH suspensions comprising water.

[2] = Doxycycline Hyclate Compatibility Test; assay type: physicochemical
Description: (§1) A similar compatibility study was conducted for Doxycycline Hyclate and Doxycycline Monohydrate.
(§2) Different compositions of hydrophilic and hydrophobic solvents containing Doxycycline Hyclate (Set I and Set II) and Doxycycline Monohydrate (Set III) were prepared by weighing the antibiotic in a glass vial and shaking overnight with each solvent investigated.
Group II included Doxycycline Hyclate mixed with various vehicles with addition of antioxidants like alpha tocopherol, butylated hydroxytoluene (BHT), and ascorbic acid.

[3] = Doxycycline Monohydrate Compatibility Test; assay type: physicochemical
Description: as §1, §2
A similar compatibility test was performed on another form of Doxycycline—Doxycycline Monohydrate.

[4] = Doxycycline Monohydrate Compatibility Test; assay type: physicochemical; remark: listed apart in the source
[5] = cited from earlier work
[6] = in vitro; cited from earlier work
[7] = tested after the storage for up to 3 weeks
[8] = mixtures stored at 25° C., 40° C. and 50° C. for two weeks

## CCO [Ethanol]
[1]; hydrophilic solvents, MCH:excipient 1:250, 25° C. and 40° C., maximum sixty days
  Compatibility with MCH: incompatible
[1]; on dissolution / storage
  Compatibility with Minocycline HCl (observations): changed their color from yellow to orange
[1]; [7]
  Compatibility with Minocycline HCl: No
[2]; [8]
  Compatibility with Doxycycline Hyclate: stable
[2]; [7]
  Compatibility with Doxycycline Hyclate: Yes
[3]; [8]
  Compatibility with Doxycycline Monohydrate: oxidized
[3]; [7]
  Compatibility with Doxycycline Monohydrate: No
[4]; Mixtures of 1.04% w/w of Doxycycline Monohydrate stored at 25° C., 40° C., and 50° C. for two weeks
  Compatibility Results: Non compatible
[4]; Mixtures of 1.04% w/w of Doxycycline Monohydrate, 25° C., two weeks
  Visual inspection after the storage at 25° C.: Brown
[4]; Mixtures of 1.04% w/w of Doxycycline Monohydrate, 40° C., two weeks
  Visual inspection after the storage at 40° C.: Brown
[4]; Mixtures of 1.04% w/w of Doxycycline Monohydrate, 50° C., two weeks
  Visual inspection after the storage at 50° C.: Black
[4]; Mixtures of 1.04% w/w of Doxycycline Monohydrate, T-0
  Visual inspection at T-0: bright yellow

## Doxycycline hyclate
[5]
  Lipid solubility: high degree of lipid solubility
[5]; in solutions of alkali hydroxides and carbonates
  Solubility: soluble
[5]; in water
  Solubility: soluble

## CN(C)c1ccc(O)c2c1C[C@H]1C[C@H]3[C@H](N(C)C)C(O)=C(C(N)=O)C(=O)[C@@]3(O)C(O)=C1C2=O [minocycline]
[6]
  Skin delivery of minocycline on topical administration: appreciable amounts of the drug to its target site of action (the skin)

— patent publication US10849847B2, “Compositions and methods for treating rosacea and acne” (Foamix Pharmaceuticals Ltd., priority 2016, dated 2020)
